Activity calls are given as the source filed them. No rule for the calls is given here.
System: HEK-293T NF-kB luciferase reporter counterscreen, luminescence
Test: NF-kB reporter inhibition in HEK-293T, dose response, counter-screen for T-cell antigen receptor NF-kB inhibitors, HEK-293T cells, luminescence (AID 489041)

| Compound | IC50 |
| --- | --- |
| CCCCCCCOc1ccc(OC(=O)c2cccnc2)cc1 | > 80 µM (inactive) |
| COc1cccc(C2CC(=O)Nc3cc4c(cc32)CCC4)c1 (stereo not given) | 10.7 µM |
| CC(=O)Nc1ccc(S(=O)(=O)N2CCCc3ccccc32)cc1 | 26.6 µM (inactive) |
| CCCOc1ccccc1C1CC(=O)Nc2cc3c(cc21)OCO3 (stereo not given) | 2.25 µM |
| O=S(=O)(Nc1ccc(F)cc1Cl)c1ccc(-c2cnc(C3CC3)o2)cc1 | 1.78 µM |
| CCN1/C(=C/c2ccc3ccccc3[n+]2CC)C=Cc2ccccc21 | 1.01 µM |
| COc1ccc(Nc2nc(-c3sc(C)nc3C)cs2)cc1 | 6.91 µM |
| Cc1cc(C(C)(C)C)cc(C)c1C[n+]1ccc2ccccc2c1 | 4.34 µM |
| CC(=O)O[C@H]1C(=O)[C@]2(C)[C@H]([C@H](OC(=O)c3ccccc3)[C@]3(O)C[C@H](OC(=O)[C@H](O)[C@@H](NC(=O)c4ccccc4)c4ccccc4)C(C)=C1C3(C)C)[C@]1(OC(C)=O)CO[C@@H]1C[C@@H]2O | 76.2 µM (inactive) |
| COc1ccc(OC)c(Nc2cc(-c3ccccc3)nc(N)n2)c1 | 3.41 µM |
| CC1=CC(C)(C)N(S(=O)(=O)c2ccc(C)cc2)c2cc(C)ccc21 | 2.17 µM |
| Cc1cc2c(cc1C)C(c1ccccc1OC(C)C)CC(=O)N2 (stereo not given) | 13.3 µM |
| CCC(=O)NC(c1ccc(C)cc1)c1ccc2cccnc2c1O (stereo not given) | 0.73 µM |
| COc1cccc(N2CCN(c3ncnc4c3cnn4-c3ccc(C)cc3C)CC2)c1 | 2.07 µM |
| Cc1ccc(Oc2ccc(OCC(=O)Nc3ccncc3)cc2)cc1 | 0.62 µM |
| O=c1cc(-c2ccccc2)[nH]c2cc(Cl)ccc12 | 19.1 µM |
| Cc1ccc(N2C(=O)c3cccc4c(N)ccc(c34)C2=O)c2cccnc12 | < 0.16 µM |
| O=C(Nc1ccc(S(=O)(=O)N2CCN(Cc3ccccc3)CC2)cc1)c1cnccn1 | 1.51 µM |
| CC/C=C/CC(=O)N[C@@H](c1ccccc1)[C@@H](O)C(=O)O[C@H]1C[C@@]2(O)[C@@H](OC(=O)c3ccccc3)C3[C@](C)(C(=O)[C@H](OC(C)=O)C(=C1C)C2(C)C)[C@@H](O)C[C@H]1OC[C@@]31OC(C)=O (stereo not given in full) | > 80 µM (inactive) |
| Cc1ccc(O)c(NC(=O)CCC2CCCCC2)c1 | > 80 µM (inactive) |
| COC(=O)Nc1ccc(S(=O)(=O)N2c3ccccc3CCC2C)cc1 (stereo not given) | 13.1 µM |
| COc1ccc(CCNc2cc(N3CCN(C(=O)c4ccccc4F)CC3)ccc2[N+](=O)[O-])cc1OC | 0.68 µM |
| Cc1ccc2nc(C)c(CN3CCN(c4ccc([N+](=O)[O-])cc4Cl)CC3)n2c1 | 6.8 µM |
| NS(=O)(=O)c1ccc(Sc2nc3ccccc3s2)c([N+](=O)[O-])c1 | 7.35 µM |
| CN(C)c1ccc2c(c1)OC(N)=C(C#N)C2c1cccc(F)c1 (stereo not given) | 1.45 µM |
| Cc1cc(C)c(CN2CCN(C(=O)Cn3cnc4c(OCc5ccccc5)ncnc43)CC2)c(C)c1 | 2.6 µM |
| COc1cc(C2C3=C(Nc4ncnn42)c2ccccc2CC3)cc(OC)c1OC (stereo not given) | 0.83 µM |

| Compound | IC50 |
| --- | --- |
| COc1ccc(OC)c(NS(=O)(=O)c2ccc(N3CCCC3=O)cc2)c1 | 4.36 µM |
| CC1CC(C)CN(S(=O)(=O)c2ccc(NC(=O)c3ccc(=O)[nH]c3)cc2)C1 (stereo not given) | 12.6 µM |
| COc1ccc(CCNc2nnc(Sc3nnnn3-c3ccccc3)s2)cc1OC | 8.36 µM |
| COc1ccc(NC(=O)/C(Cl)=C(/Cl)S(=O)Cc2ccccc2)cn1 (stereo not given) | 8.71 µM |
| COc1ccc(C(=O)c2ccc(N(C)C)cc2)c(OC)c1 | 71.1 µM (inactive) |
| CCOC(=O)C(C)Oc1cccc2c(=O)n(CC(=O)NCc3ccc(F)cc3)ccc12 (stereo not given) | 9.67 µM |
| O=S(=O)(c1cc(F)ccc1F)N1CCN(c2ncnc3ccccc23)CC1 | 3.94 µM |
| O=C(COc1ccccc1-c1ccccc1)N/N=C/c1cccc2ccccc12 | 8 µM |
| CCn1nc(C)c(CNC(=O)c2ccc(OC3CCN(Cc4ccccn4)CC3)cc2)c1C | 1.72 µM |
| CN(C)c1ccc(-[n+]2c(-c3ccccc3)cc(-c3ccccc3)cc2-c2ccccc2)cc1 | 1.48 µM |
| Cc1ccc(-c2nc(-c3ccccn3)no2)cc1 | 3.83 µM |
| COc1cc(C(=O)N2CCN(c3cc(Cl)ccc3Cl)CC2)cc(OC)c1OC | 3.01 µM |
| CC1(C)Cc2c(sc(NC(=O)COc3cccc4ccccc34)c2C#N)C(C)(C)N1 | > 80 µM (inactive) |
| COc1cccc(N2CCN(C(=O)c3ccc(CS(=O)c4ccccc4Cl)o3)CC2)c1 (stereo not given) | 6.1 µM |
| CC(Oc1ccc(Cl)cc1Cl)C(=O)Nc1ccncc1 (stereo not given) | 6.73 µM |
| COc1cc(OC)c(/C=C2\C(=O)Nc3ccccc32)c(OC)c1 | 6.26 µM |
| COc1cccc(/C=N/Nc2ncnc3c2ncn3Cc2ccccc2)c1O | 0.25 µM |
| Cc1cc(C(=O)N2CC=C(c3ccccc3)CC2)c2ccccc2n1 | 5.69 µM |
| CC(C)(C)c1ccc(C(=O)Nc2ccc(Oc3cccnc3)nc2)cc1 | 2.18 µM |
| Cc1ccc(-c2cc(C(F)F)n3ncc(C(=O)N4CCc5ccccc54)c3n2)cc1 | 9.99 µM |
| C=CCSc1nc2ccccc2n1C(=O)/C=C/c1cc(OC)c(OC)c(OC)c1 | 21.2 µM (inactive) |
| CN(C)S(=O)(=O)c1ccc(Nc2nc(C3CC3)nc3c2nnn3Cc2ccccc2Cl)cc1 | 4.04 µM |
| CCOC(=O)c1ccc(Nc2nc(N)c3cc(OC)c(OC)cc3n2)cc1 | > 80 µM (inactive) |
| C/C=C/COC(=O)c1[nH]c2c(c1C)C(=O)CC(c1ccco1)C2 (stereo not given) | 0.34 µM |
| O=C(O)c1ccc(N/N=C/c2ccc3c(c2)OCO3)cc1 | 1.72 µM |
| CC[C@@]1(O)C(=O)OCc2c1cc1n(c2=O)Cc2cc3c(N)cccc3nc2-1 | 6.02 µM |
| C[C@]12CCC3C(CCC4=CC(O)CC[C@@]43/C=N/O)C1(O)CCC2C1=CC(=O)OC1 (stereo not given in full) | 0.33 µM |

| Compound | IC50 |
| --- | --- |
| COc1ccc(C[C@H](N)C(=O)N[C@H]2[C@@H](O)[C@H](n3cnc4c(N(C)C)ncnc43)O[C@@H]2CO)cc1 | 2.64 µM |
| CC(C)(C)c1csc(Sc2ccc([N+](=O)[O-])cn2)n1 | 36.1 µM (inactive) |
| O=C(O)c1ccc(-c2ccc(-c3ccccc3)cc2)s1 | 9.3 µM |
| CCc1ccc(S(=O)(=O)/N=C2\C=C(Nc3ccc(O)cc3)C(=O)c3ccccc32)cc1 | 1.1 µM |
| COc1cc(NS(=O)(=O)c2ccc(C)cc2)c2ncccc2c1 | 1.65 µM |
| CC(C)(C)OC(=O)NCCCCCc1cn(CC(=O)NCCCCCCCCCCC(=O)N2CCN(C(=O)OC(C)(C)C)CC2)nn1 | 0.22 µM |
| Cc1ccc2c(c1)C=CC(C#N)N2C(=O)c1ccccc1 (stereo not given) | 29.1 µM (inactive) |
| O=c1oc2ccccc2cc1-c1cn(-c2ccccc2)c(=S)[nH]1 | 4.59 µM |
| Cc1ccc(C(=O)Nc2ncc(Cc3ccc(SC(F)F)cc3)s2)cc1 | > 80 µM (inactive) |
| COc1ccccc1C(=O)N(CCC1CCCN1C)c1nc2ccccc2s1 (stereo not given) | 18.6 µM |
| CCN(CC)S(=O)(=O)c1cc(NC(=O)CNc2cccc(S(=O)(=O)N3CCCC3)c2)ccc1C | 2.52 µM |
| O=C(Nc1ccc(C(F)(F)F)cc1)c1cccn(Cc2ccc3c(c2)OC(F)(F)O3)c1=O | 22.5 µM (inactive) |
| Cc1nc2c(=O)n(C)c(=O)nc-2n(C)n1 | 1.88 µM |
| CCCCCCCCCCn1c2c(c(=N)c3c1CCC3)CCC2 | 1.29 µM |
| CC(=O)Nc1ccc(S(=O)(=O)N2c3ccc(F)cc3CCC2C)cc1 (stereo not given) | 14.6 µM |
| Cc1ccc(S(=O)(=O)NCc2ccncc2)c(C)c1C | 0.3 µM |
| Cc1ccc2nc(-c3ccc4c(c3)OCCO4)cn2c1 | 2.34 µM |
| CSc1nc(N(C)NC(=O)c2cccc(C)c2)c2ccccc2n1 | 4.16 µM |
| CCCC(=O)Nc1nc2ccc(S(=O)(=O)N3CCCCC3)cc2s1 | 3.55 µM |
| CC(=O)NC(c1ccc2ccccc2c1)c1ccc2cccnc2c1O (stereo not given) | 41.3 µM (inactive) |
| CCOc1ccc(NC(=O)c2cc3c(C)nc4ccccc4c3o2)cc1 | 6.08 µM |
| Cc1cc(C)cc(NC(=O)c2ccc([N+](=O)[O-])o2)c1 | 31.5 µM (inactive) |
| Cc1sc2ncnc(NC3CCN(Cc4ccccc4)CC3)c2c1C | 2.41 µM |
| C/C(=N\NC(=O)c1cc(C)nc2ccccc12)c1ccccn1 | 3.06 µM |
| COc1ccc(-[n+]2c(-c3ccccc3)cc(-c3ccc(C)cc3)cc2-c2ccccc2)cc1 | 3.61 µM |
| COc1ccc(CS(=O)/C(Cl)=C(/Cl)C(=O)Nc2ccc(OC)nc2)cc1 (stereo not given) | 4.31 µM |
| O=C(N/N=C(\c1ccccc1)c1cccnc1)c1cccc(F)c1 | > 80 µM (inactive) |

| Compound | IC50 |
| --- | --- |
| O=C1CC(c2cc(F)ccc2F)c2cc3c(cc2N1)CCC3 (stereo not given) | 4.69 µM |
| CCCC(=O)NC(c1ccc(C(C)C)cc1)c1ccc2cccnc2c1O (stereo not given) | 0.66 µM |
| COc1cc2c(c(OC)c1OC)-c1ccc(OC)c(=O)cc1[C@@H](N(C)CC#CCO)CC2 | 0.56 µM |
| Cc1ccc(NC(=O)CSc2nc(-c3ccco3)cc(C(F)(F)F)n2)cc1C | > 80 µM (inactive) |
| COc1cccc(N/C(N)=N/c2nc(CSc3ccccn3)cc(=O)[nH]2)c1 | 5.9 µM |
| CCOCCOC(=O)c1[nH]c2c(c1C)C(=O)CC(c1cccs1)C2 (stereo not given) | 4.6 µM |
| CCOc1ccc(N(C)S(=O)(=O)c2ccc(-c3cc(C)no3)s2)cc1 | 7.17 µM |
| O=C(Nc1ccc(S(=O)(=O)Nc2ccc(F)cc2)cc1)c1ccc(CN2CCOCC2)cc1 | 5.68 µM |
| CCOC(=O)c1[nH]c(C)c(C(=O)Nc2cc(Cl)ccc2C)c1C | 4.39 µM |
| Cc1nn(-c2ccccc2Cl)c(Cl)c1/C=N/Nc1nc2ccccc2s1 | < 0.16 µM |
| CCOCCCNC(=O)c1cc2c(=O)n3cccc(C)c3nc2n1C | > 80 µM (inactive) |
| COc1ccc(Cn2c(SCc3ccc(C)cc3)nc3cc(OC)c(OC)cc3c2=N)cc1Cl | > 80 µM (inactive) |
| COc1cc(/C=C/[N+](=O)[O-])ccc1OCc1cccc(C(=O)O)c1 | 10.5 µM |
| CC1CCN(c2c(NCc3ccc(C(=O)N4CCc5ccccc54)cc3)c(=O)c2=O)CC1 | 7.14 µM |
| CCC(O)C1CCN(C(=O)c2cc(COc3ccc4ncccc4c3)on2)CC1 (stereo not given) | 1.72 µM |
| CC[n+]1cc(C)ccc1/C=C/c1ccc(N(C)C)cc1 | 3.97 µM |
| CS(=O)(=O)c1ccc(Sc2nc3ccccc3s2)c([N+](=O)[O-])c1 | 17.1 µM |
| CCOc1ccccc1C1CC(=O)Nc2cc3c(cc21)OCO3 (stereo not given) | 6.14 µM |
| Cn1nc([N+](=O)[O-])nc1Sc1nnc(-c2ccccc2)o1 | 37.5 µM (inactive) |
| N#C/C(=C\c1ccc(OCc2ccc(C(=O)O)cc2)cc1)C(=O)N1CCOCC1 | 4.51 µM |
| Cc1cc(/C=C2\Sc3ccccc3N2C)cc(C)[n+]1CC1CCCO1 (stereo not given) | 3.74 µM |
| CC(C)c1oc(=O)cc2c1[C@@H](O)[C@H]1OC(=O)[C@@]3(C)C[C@@H](O)[C@@H](O)[C@@]2(C)C13 (stereo not given in full) | 0.75 µM |
| CCOC(=O)c1ccc2nc(Nc3nc4ccc(F)cc4s3)sc2c1 | 1.14 µM |
| CCCCCCCCn1c2c(c(=N)c3ccccc31)CCC2 | 1.39 µM |

Reference: PubChem BioAssay AID489041 (Sanford-Burnham Center for Chemical Genomics, 2010)
